{"source": "patent US20240335441A1", "about": "“METHOD OF TREATING POSTTRAUMATIC STRESS DISORDER” (Jazz Pharmaceuticals Ireland Limited, priority 2021, published 2024)", "origin": "cited, not measured here", "key": {"[1]": {"system": "men with cannabis use disorder (CUD)", "conditions": "compared to placebo"}, "healthy volunteers": {"system": "healthy volunteers", "conditions": "placebo-controlled"}}}
{"smiles": "O=C(Nc1cccnn1)N1CCC(=Cc2cccc(Oc3ccc(C(F)(F)F)cn3)c2)CC1", "note": "[Compound A, N-Pyridazin-3-yl-4-{3-[5-(trifluoromethyl)-2-pyridyloxy]benzylidene}piperidine-1-carboxamide]", "values": [{"measurement": "self-reported overall sleep", "setting": "[1]", "value": "improved"}, {"measurement": "slow wave sleep as measured by polysomnography", "setting": "[1]", "value": "significantly increased"}, {"measurement": "negative affect in response to an aversive stimulus", "setting": "healthy volunteers", "value": "blunted"}, {"measurement": "recall of fear extinction memory", "setting": "healthy volunteers", "value": "enhanced"}]}
